Reference: patent US9404081B2, “Pyruvate kinase activators for use in therapy” (AGIOS PHARMACEUTICALS, INC., priority 2011, dated 2016)

Key:
Assay type in all cases: biochemical
[1] = molecular target: PKR R510Q (Homo sapiens, UniProt P30613, R510Q); test: PKR R510Q Single Point Percent Activation Assay; settings: read-out: Act. % 510Q
Protocol: PKR R510Q Single Point Percent Activation Assay
(§1) A compound described herein was diluted with DMSO and tested at 1 μM concentration. The enzyme was diluted in 1× Buffer: (100 mM KCl, 50 mM Tris 7.5, 5 mM MgCl2, 1 mM DTT, 0.03% BSA). 2 μL of compound solution was first added into wells, and then 180 μL of enzyme solution was added. Assays were assembled except for ADP, and plates were stored for 60 minutes at RT. 20 μL ADP was added to start the assay and assay output was evaluated using OD340 at SpectraMax. The assay was run at room temperature.
Final concentration: PKR R510Q (40 ng/well), Tris pH 7.5 (50 mM), KCl (100 mM), MgCl2 (5 mM), ADP (0.2 mM), PEP (0.11 mM), NADH (180 μM), LDH (0.5 units, Sigma 59023), DTT (1 mM) and BSA (0.03%).

[2] = molecular target: PKR R532W (Homo sapiens, UniProt P30613, R532W); test: PKR R532W Single Point Percent Activation Assay; settings: read-out: Act, % 532W
Chain of PKR R532W (P30613 whole entry R532W): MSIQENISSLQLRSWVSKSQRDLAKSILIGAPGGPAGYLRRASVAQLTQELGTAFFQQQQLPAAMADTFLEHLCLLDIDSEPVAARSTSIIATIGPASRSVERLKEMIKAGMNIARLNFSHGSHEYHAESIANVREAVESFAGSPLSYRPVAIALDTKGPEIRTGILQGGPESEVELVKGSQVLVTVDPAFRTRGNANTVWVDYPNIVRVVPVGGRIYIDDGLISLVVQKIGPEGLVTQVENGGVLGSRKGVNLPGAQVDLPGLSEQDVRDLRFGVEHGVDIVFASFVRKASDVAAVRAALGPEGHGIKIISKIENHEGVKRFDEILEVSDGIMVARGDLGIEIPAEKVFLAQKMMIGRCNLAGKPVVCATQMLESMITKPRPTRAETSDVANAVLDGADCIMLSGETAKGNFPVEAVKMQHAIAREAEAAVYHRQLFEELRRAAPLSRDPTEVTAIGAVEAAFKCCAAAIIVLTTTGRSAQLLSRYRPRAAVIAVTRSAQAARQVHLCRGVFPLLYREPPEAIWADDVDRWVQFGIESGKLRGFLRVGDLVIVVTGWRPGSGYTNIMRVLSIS
Protocol: PKR R532W Single Point Percent Activation Assay
as §1
Final concentration: PKR R532W (100 ng/well), Tris pH 7.5 (50 mM), KCl (100 mM), MgCl2 (5 mM), ADP (0.36 mM), PEP (0.1 mM), NADH (180 μM), LDH (0.5 units, Sigma 59023), DTT (1 mM) and BSA (0.03%).

[3] = molecular target: PKR T384W (Homo sapiens, UniProt P30613, T384W); test: PKR T384W Single Point Percent Activation Assay; settings: read-out: Act. % 384W
Chain of PKR T384W (P30613 whole entry T384W): as the sequence (P30613 whole entry R532W) above, with T384W, W532R counted along it
Protocol: PKR T384W Single Point Percent Activation Assay
as §1, with “180 μL enzyme solution” for “180 μL of enzyme solution”
Final concentration: PKR T384W soluble (300 ng/well), Tris pH 7.5 (50 mM), KCl (100 mM), MgCl2 (5 mM), ADP (0.08 mM), PEP (0.23 mM), NADH (180 μM), LDH (0.5 units, Sigma 59023), DTT (1 mM) and BSA (0.03%).

[4] = molecular target: PKR wt (Homo sapiens, UniProt P30613); test: PKR WT Single Point Percent Activation Assay
Chain of PKR wt (P30613 whole entry): as the sequence (P30613 whole entry R532W) above, with W532R counted along it
Protocol: PKR WT Single Point Percent Activation Assay
as §1
Final concentration: PKR wt (100 ng/well), Tris pH 7.5 (50 mM), KCl (100 mM), MgCl2 (5 mM), ADP (0.48 mM), PEP (0.15 mM), NADH (180 μM), LDH (0.5 units, Sigma 59023), DTT (1 mM) and BSA (0.03%).

Chain of PKR R510Q (P30613 whole entry R510Q): as the sequence (P30613 whole entry R532W) above, with R510Q, W532R counted along it

Compound: C[C@@H]1CN(C(=O)c2ccc(NS(=O)(=O)c3cccc4cccnc34)cc2)C[C@H](C)N1C(=O)c1ccccn1
- activation at 1 µM [1]: 101 to 500%
- activation at 1 µM [2]: 101 to 500%
- activation at 1 µM [3]: 101 to 500%
- activation at 1 µM [4]: 101 to 500%

Compound: CC(C)COC(=O)N1[C@H](C)CN(C(=O)c2ccc(NS(=O)(=O)c3cccc4cccnc34)cc2)C[C@@H]1C
- activation at 1 µM [1]: 101 to 500%
- activation at 1 µM [2]: 1 to 100%
- activation at 1 µM [3]: 101 to 500%
- activation at 1 µM [4]: 101 to 500%

Compound: CC1CN(CC2CCOC2)CC(C)N1C(=O)c1ccc(NS(=O)(=O)c2cccc3cccnc23)cc1 (stereo not drawn)
- activation at 1 µM [1]: 101 to 500%
- activation at 1 µM [2]: 1 to 100%
- activation at 1 µM [3]: 1 to 100%
- activation at 1 µM [4]: 1 to 100%

Compound: C[C@@H]1CN(CC2CCC2)CCN1C(=O)c1ccc(NS(=O)(=O)c2cccc3cccnc23)cc1
- activation at 1 µM [1]: 101 to 500%
- activation at 1 µM [2]: 101 to 500%
- activation at 1 µM [3]: 1 to 100%
- activation at 1 µM [4]: 101 to 500%

Compound: C[C@H]1CN(CC2CCC2)CCN1C(=O)c1ccc(NS(=O)(=O)c2cccc3cccnc23)cc1
- activation at 1 µM [1]: 101 to 500%
- activation at 1 µM [2]: 101 to 500%
- activation at 1 µM [3]: 101 to 500%
- activation at 1 µM [4]: 101 to 500%

Compound: C[C@@H]1CN(C[C@@H]2CCCO2)CCN1C(=O)c1ccc(NS(=O)(=O)c2cccc3cccnc23)cc1
- activation at 1 µM [1]: 101 to 500%
- activation at 1 µM [2]: 101 to 500%
- activation at 1 µM [3]: 101 to 500%
- activation at 1 µM [4]: 101 to 500%

Compound: C[C@@H]1CN(C[C@H]2CCCO2)CCN1C(=O)c1ccc(NS(=O)(=O)c2cccc3cccnc23)cc1
- activation at 1 µM [1]: 1 to 100%
- activation at 1 µM [2]: 101 to 500%
- activation at 1 µM [3]: 101 to 500%
- activation at 1 µM [4]: 101 to 500%

Compound: O=C(c1ccc(NS(=O)(=O)c2cccc3cccnc23)cc1)N1C2CCC1CN(Cc1ccccc1)C2
- activation at 1 µM [1]: 101 to 500%
- activation at 1 µM [2]: 101 to 500%
- activation at 1 µM [3]: 101 to 500%
- activation at 1 µM [4]: 101 to 500%

Compound: O=C1CN(C(=O)c2ccc(NS(=O)(=O)c3cccc4cccnc34)cc2)CCN1CC1CC1
- activation at 1 µM [1]: 1 to 100%
- activation at 1 µM [2]: 1 to 100%
- activation at 1 µM [3]: 101 to 500%
- activation at 1 µM [4]: 101 to 500%

Compound: O=C1CN(C(=O)c2ccc(NS(=O)(=O)c3cccc4cccnc34)cc2)CCN1Cc1cc(F)cc(F)c1
- activation at 1 µM [1]: 101 to 500%
- activation at 1 µM [2]: 101 to 500%
- activation at 1 µM [3]: 101 to 500%
- activation at 1 µM [4]: 101 to 500%

Compound: O=C(c1ccc(NS(=O)(=O)c2cccc3cccnc23)cc1)N1CC2CCC(C1)N2Cc1cc(F)cc(F)c1
- activation at 1 µM [1]: 101 to 500%
- activation at 1 µM [2]: 1 to 100%
- activation at 1 µM [3]: 101 to 500%
- activation at 1 µM [4]: 101 to 500%

Compound: O=C(c1ccc(NS(=O)(=O)c2cccc3cccnc23)cc1)N1CC2CCC(C1)N2Cc1ccc(F)cc1
- activation at 1 µM [1]: 101 to 500%
- activation at 1 µM [2]: 1 to 100%
- activation at 1 µM [3]: 1 to 100%
- activation at 1 µM [4]: 101 to 500%

Compound: O=C(c1ccc(NS(=O)(=O)c2cccc3cccnc23)cc1)N1CC2CCC(C1)N2Cc1ccccc1
- activation at 1 µM [1]: 101 to 500%
- activation at 1 µM [2]: 101 to 500%
- activation at 1 µM [3]: 101 to 500%
- activation at 1 µM [4]: 101 to 500%

Compound: O=C(c1ccc(NS(=O)(=O)c2cccc3cccnc23)cc1)N1CC2CCC(C1)N2CC1CC1
- activation at 1 µM [1]: 101 to 500%
- activation at 1 µM [2]: 101 to 500%
- activation at 1 µM [3]: 101 to 500%
- activation at 1 µM [4]: 1 to 100%

Compound: O=C(c1ccc(NS(=O)(=O)c2cccc3cccnc23)cc1)N1CCn2c(nnc2-c2cc(F)cc(F)c2)C1
- activation at 1 µM [1]: 101 to 500%
- activation at 1 µM [2]: 101 to 500%
- activation at 1 µM [3]: 101 to 500%
- activation at 1 µM [4]: 101 to 500%

Compound: O=C(c1ccc(NS(=O)(=O)c2cccc3cccnc23)cc1)N1C2CCC1CN(Cc1ccc(F)cc1)C2
- activation at 1 µM [1]: 101 to 500%
- activation at 1 µM [2]: 1 to 100%
- activation at 1 µM [3]: 101 to 500%
- activation at 1 µM [4]: 1 to 100%

Compound: O=C(c1ccc(NS(=O)(=O)c2cccc3cccnc23)cc1)N1C2CCC1CN(Cc1cc(F)cc(F)c1)C2
- activation at 1 µM [1]: 101 to 500%
- activation at 1 µM [2]: 101 to 500%
- activation at 1 µM [3]: 101 to 500%
- activation at 1 µM [4]: 101 to 500%

Compound: O=C(c1ccc(NS(=O)(=O)c2cccc3cccnc23)cc1)N1C2CCC1CN(CC1CC1)C2
- activation at 1 µM [1]: 1 to 100%
- activation at 1 µM [2]: 101 to 500%
- activation at 1 µM [3]: 101 to 500%
- activation at 1 µM [4]: 101 to 500%
